Results taken from patent US20240190849A1, “AMINOPYRIMIDINE COMPOUNDS AND METHODS OF THEIR USE” (TYRA BIOSCIENCES, INC., priority 2021, published 2024).

What was measured:
Details in all cases: FGFR binding data
FGFR2 = molecular target: T1, FGFR2 (Homo sapiens, UniProt P21802); assay: Kinase binding assay (kinase-tagged T7 phage, affinity beads, qPCR readout), FGFR2
T1 construct: made in house; host or cells: E. coli derived from BL21, infected with T7 phage
In short: (§1)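 Dissociation constants were measured by bead-capture competition at 0.9% DMSO, room temperature, 1 hour. qPCR of eluted kinase supplied the signal.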

FGFR1 = molecular target: T2, FGFR1 (Homo sapiens, UniProt P11362); assay: Kinase binding assay (kinase-tagged T7 phage, affinity beads, qPCR readout), FGFR1
T2 construct: made in house; host or cells: E. coli derived from BL21, infected with T7 phage
In short: as §1

FGFR3 = molecular target: T3, FGFR3 (Homo sapiens, UniProt P22607); assay: Kinase binding assay (kinase-tagged T7 phage, affinity beads, qPCR readout), FGFR3
T3 construct: made in house; host or cells: E. coli derived from BL21, infected with T7 phage
In short: as §1

FGFR3 (V555M) = molecular target: T4, FGFR3 (V555M) (Homo sapiens, UniProt P22607, V555M); assay: Kinase binding assay (kinase-tagged T7 phage, affinity beads, qPCR readout), FGFR3 (V555M)
T4 construct: made in house; host or cells: E. coli derived from BL21, infected with T7 phage
In short: as §1

T4 sequence (P22607 23-806 V555M): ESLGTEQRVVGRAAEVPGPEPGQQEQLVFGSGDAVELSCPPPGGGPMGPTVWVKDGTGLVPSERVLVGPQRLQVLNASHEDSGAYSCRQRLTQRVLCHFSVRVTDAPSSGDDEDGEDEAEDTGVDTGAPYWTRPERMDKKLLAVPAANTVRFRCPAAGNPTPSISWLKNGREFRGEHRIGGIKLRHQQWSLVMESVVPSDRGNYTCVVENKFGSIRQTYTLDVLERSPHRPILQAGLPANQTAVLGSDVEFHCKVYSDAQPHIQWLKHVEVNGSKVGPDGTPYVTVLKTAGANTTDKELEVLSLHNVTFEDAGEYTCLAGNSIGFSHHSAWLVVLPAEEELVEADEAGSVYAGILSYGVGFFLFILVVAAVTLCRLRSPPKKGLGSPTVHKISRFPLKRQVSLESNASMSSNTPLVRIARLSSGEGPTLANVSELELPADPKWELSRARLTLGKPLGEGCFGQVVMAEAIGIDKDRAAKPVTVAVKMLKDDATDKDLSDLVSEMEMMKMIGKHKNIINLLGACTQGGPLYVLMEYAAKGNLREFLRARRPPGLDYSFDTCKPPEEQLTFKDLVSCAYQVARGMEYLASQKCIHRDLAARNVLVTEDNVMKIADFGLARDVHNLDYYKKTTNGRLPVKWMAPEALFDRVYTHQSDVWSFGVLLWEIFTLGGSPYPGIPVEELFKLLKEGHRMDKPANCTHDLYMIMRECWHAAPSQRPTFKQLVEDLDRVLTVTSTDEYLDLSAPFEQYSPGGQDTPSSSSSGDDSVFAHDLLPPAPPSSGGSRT
T1 sequence (P21802 22-821): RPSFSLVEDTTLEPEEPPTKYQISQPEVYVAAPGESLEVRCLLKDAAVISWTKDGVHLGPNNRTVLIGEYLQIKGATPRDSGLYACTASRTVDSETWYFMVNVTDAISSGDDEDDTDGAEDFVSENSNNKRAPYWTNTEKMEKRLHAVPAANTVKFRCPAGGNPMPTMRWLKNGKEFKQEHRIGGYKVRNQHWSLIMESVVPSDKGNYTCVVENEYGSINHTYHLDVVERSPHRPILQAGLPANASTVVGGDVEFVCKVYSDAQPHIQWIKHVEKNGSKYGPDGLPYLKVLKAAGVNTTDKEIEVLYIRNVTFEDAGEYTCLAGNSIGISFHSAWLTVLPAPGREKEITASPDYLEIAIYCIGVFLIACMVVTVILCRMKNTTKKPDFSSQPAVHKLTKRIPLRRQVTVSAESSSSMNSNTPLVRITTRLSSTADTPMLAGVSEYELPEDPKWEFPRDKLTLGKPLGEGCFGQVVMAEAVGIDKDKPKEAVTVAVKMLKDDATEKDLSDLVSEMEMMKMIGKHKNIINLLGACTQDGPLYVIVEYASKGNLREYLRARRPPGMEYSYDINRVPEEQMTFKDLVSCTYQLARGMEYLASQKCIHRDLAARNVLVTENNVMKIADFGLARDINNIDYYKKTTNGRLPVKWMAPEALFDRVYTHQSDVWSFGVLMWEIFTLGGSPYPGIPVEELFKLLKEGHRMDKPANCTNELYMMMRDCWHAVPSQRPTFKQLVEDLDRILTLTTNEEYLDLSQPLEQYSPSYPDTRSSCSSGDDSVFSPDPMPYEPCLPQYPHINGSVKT
T3 sequence (P22607 23-806): as the sequence (P22607 23-806 V555M) above, with M533V counted along it
T2 sequence (P11362 22-822): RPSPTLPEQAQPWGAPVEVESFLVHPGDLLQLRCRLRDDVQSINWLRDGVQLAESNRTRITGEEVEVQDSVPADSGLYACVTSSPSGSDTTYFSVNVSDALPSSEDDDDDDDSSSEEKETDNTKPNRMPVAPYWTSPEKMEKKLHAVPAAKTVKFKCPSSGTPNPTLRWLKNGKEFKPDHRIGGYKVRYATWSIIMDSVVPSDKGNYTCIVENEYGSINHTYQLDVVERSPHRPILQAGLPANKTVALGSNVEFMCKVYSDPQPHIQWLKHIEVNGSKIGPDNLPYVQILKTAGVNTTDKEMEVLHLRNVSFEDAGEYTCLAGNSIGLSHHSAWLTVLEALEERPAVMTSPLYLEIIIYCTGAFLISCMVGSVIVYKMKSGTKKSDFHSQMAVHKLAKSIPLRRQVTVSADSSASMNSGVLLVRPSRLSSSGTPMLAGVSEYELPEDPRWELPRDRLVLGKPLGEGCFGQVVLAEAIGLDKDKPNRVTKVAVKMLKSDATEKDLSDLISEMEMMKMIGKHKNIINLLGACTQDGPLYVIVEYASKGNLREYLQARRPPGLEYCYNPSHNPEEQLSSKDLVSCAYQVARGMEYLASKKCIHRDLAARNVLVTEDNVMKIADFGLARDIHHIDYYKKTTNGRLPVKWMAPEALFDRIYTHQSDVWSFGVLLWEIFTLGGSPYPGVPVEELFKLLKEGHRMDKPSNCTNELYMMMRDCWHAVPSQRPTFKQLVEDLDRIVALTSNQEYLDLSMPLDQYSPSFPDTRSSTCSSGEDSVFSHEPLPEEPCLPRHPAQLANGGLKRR

Row | SMILES | Kd (FGFR2) [nM] | Kd (FGFR1) [nM] | Kd (FGFR3) [nM] | Kd (FGFR3 (V555M)) [nM]
1 | C=CC(=O)Nc1ccc2c(c1)c(C)cn2-c1nc(Nc2cccnc2F)ncc1F [Example 157, N-[1-[5-fluoro-2-[(2-fluoro-3-pyridyl)amino]pyrimidin-4-yl]-3-methyl-indol-5-yl]prop-2-enamide] | 0.1 to 100 | 250 to 1000 | 0.1 to 100 | 0.1 to 100
2 | C=CC(=O)Nc1ccc2c(c1)c(C)cn2-c1nc(Nc2cn(C(C)(C)C#N)nc2C)ncc1F [Example 159, N-[1-[2-[[1-(1-cyano-1-methyl-ethyl)-3-methyl-pyrazol-4-yl]amino]-5-fluoro-pyrimidin-4-yl]-3-methyl-indol-5-yl]prop-2-enamide] | 0.1 to 100 | 0.1 to 100 | 0.1 to 100 | 0.1 to 100
3 | C=CC(=O)Nc1ccc2c(c1)c(C)cn2-c1nc(Nc2cc(C)sn2)ncc1F [Example 161, N-[1-[5-fluoro-2-[(5-methylisothiazol-3-yl)amino]pyrimidin-4-yl]-3-methyl-indol-5-yl]prop-2-enamide] | 0.1 to 100 | 0.1 to 100 | 0.1 to 100 | 0.1 to 100
4 | C=CC(=O)Nc1ccc2c(-c3ccnc(Nc4cnn(CC(F)(F)F)c4)n3)cn(C)c2c1 [Example 168, N-[1-methyl-3-[2-[[1-(2,2,2-trifluoroethyl)pyrazol-4-yl]amino]pyrimidin-4-yl]indol-6-yl]prop-2-enamide] | 0.1 to 100 | 0.1 to 100 | 0.1 to 100 | 0.1 to 100
5 | C=CC(=O)Nc1ccc2c(-c3nc(Nc4cn(CC(F)F)nc4C)ncc3F)cn(C)c2c1 [Example 169, N-[3-[2-[[1-(2,2-difluoroethyl)-3-methyl-pyrazol-4-yl]amino]-5-fluoro-pyrimidin-4-yl]-1-methyl-indol-6-yl]prop-2-enamide] | 0.1 to 100 | 250 to 1000 | 0.1 to 100 | 0.1 to 100
6 | C=CC(=O)Nc1ccc2c(-c3ccnc(Nc4cn(CC(F)F)nc4C)n3)cn(C)c2c1 [Example 170, N-[3-[2-[[1-(2,2-difluoroethyl)-3-methyl-pyrazol-4-yl]amino]pyrimidin-4-yl]-1-methyl-indol-6-yl]prop-2-enamide] | 0.1 to 100 | 100 to 250 | 0.1 to 100 | 0.1 to 100
7 | CCn1cc(Nc2ncc(F)c(-n3cc(C)c4cc(NC(=O)/C=C/CN(C)C)cnc43)n2)c(C)n1 [Example 171, (E)-4-(dimethylamino)-N-[1-[2-[(1-ethyl-3-methyl-pyrazol-4-yl)amino]-5-fluoro-pyrimidin-4-yl]-3-methyl-pyrrolo[2,3-b]pyridin-5-yl]but-2-enamide] | 100 to 250 | 100 to 250 | 0.1 to 100 | 100 to 250
8 | C=CC(=O)Nc1ccc2c(-c3ccnc(Nc4cn(C)nc4C)n3)cn(C)c2c1 [Example 172, N-[3-[2-[(1,3-dimethylpyrazol-4-yl)amino]pyrimidin-4-yl]-1-methyl-indol-6-yl]prop-2-enamide] | 0.1 to 100 | 250 to 1000 | 0.1 to 100 | 0.1 to 100
9 | C=CC(=O)Nc1ccc2c(-c3ccnc(Nc4cn(CC)nc4C)n3)cn(C)c2c1 [Example 173, N-[3-[2-[(1-ethyl-3-methyl-pyrazol-4-yl)amino]pyrimidin-4-yl]-1-methyl-indol-6-yl]prop-2-enamide] | 100 to 250 | 250 to 1000 | 0.1 to 100 | 0.1 to 100
10 | C=CC(=O)Nc1ccc2c(-c3nc(Nc4cn(CC)nc4C)ncc3F)cn(C)c2c1 [Example 177, N-[3-[2-[(1-ethyl-3-methyl-pyrazol-4-yl)amino]-5-fluoro-pyrimidin-4-yl]-1-methyl-indol-6-yl]prop-2-enamide] | 0.1 to 100 | 250 to 1000 | 0.1 to 100 | 0.1 to 100
11 | Cc1nn(C)cc1Nc1ncc(F)c(-n2cc(C)c3cc(NC(=O)/C=C/CN(C)C)cnc32)n1 [Example 179, (E)-4-(dimethylamino)-N-[1-[2-[(1,3-dimethylpyrazol-4-yl)amino]-5-fluoro-pyrimidin-4-yl]-3-methyl-pyrrolo[2,3-b]pyridin-5-yl]but-2-enamide] | 100 to 250 | 250 to 1000 | 100 to 250 | 100 to 250
12 | Cc1cn(-c2nc(Nc3cnn(C[C@@H](C)O)c3)ncc2F)c2ncc(NC(=O)/C=C/CN(C)C)cc12 [Example 191, (E)-4-(dimethylamino)-N-[1-[5-fluoro-2-[[1-[(2R)-2-hydroxypropyl]pyrazol-4-yl]amino]pyrimidin-4-yl]-3-methyl-pyrrolo[2,3-b]pyridin-5-yl]but-2-enamide] | 0.1 to 100 | 0.1 to 100 | 0.1 to 100 | 0.1 to 100
13 | C=CC(=O)Nc1ccc2c(c1)c(C)cn2-c1nc(Nc2cnn(CCO)c2C)ncc1F [Example 192, N-[1-[5-fluoro-2-[[1-(2-hydroxyethyl)-5-methyl-pyrazol-4-yl]amino]pyrimidin-4-yl]-3-methyl-indol-5-yl]prop-2-enamide] | 0.1 to 100 | 0.1 to 100 | 0.1 to 100 | 0.1 to 100
14 | C=CC(=O)Nc1ccc2c(c1)c(C)cn2-c1nc(Nc2cnn(CCOCC)c2)ncc1F [Example 193] | 0.1 to 100 | 0.1 to 100 | 0.1 to 100 | 0.1 to 100
15 | Cc1cn(-c2nc(Nc3cnn(C[C@H](C)O)c3)ncc2F)c2ncc(NC(=O)/C=C/CN(C)C)cc12 [Example 196, (E)-4-(dimethylamino)-N-[1-[5-fluoro-2-[[1-[(2S)-2-hydroxypropyl]pyrazol-4-yl]amino]pyrimidin-4-yl]-3-methyl-pyrrolo[2,3-b]pyridin-5-yl]but-2-enamide] | 0.1 to 100 | 0.1 to 100 | 0.1 to 100 | 0.1 to 100
16 | Cc1cn(-c2nc(Nc3cnn(C[C@@H](C)O)c3)ncc2F)c2ncc(NC(=O)/C=C/CN3CCOCC3)cc12 [Example 197, (E)-N-[1-[5-fluoro-2-[[1-[(2R)-2-hydroxypropyl]pyrazol-4-yl]amino]pyrimidin-4-yl]-3-methyl-pyrrolo[2,3-b]pyridin-5-yl]-4-morpholino-but-2-enamide] | 250 to 1000 | 250 to 1000 | 100 to 250 | 250 to 1000
17 | Cc1cn(-c2nc(Nc3cnn(C[C@H](C)O)c3)ncc2F)c2ncc(NC(=O)/C=C/CN3CCOCC3)cc12 [Example 198, (E)-N-[1-[5-fluoro-2-[[1-[(2S)-2-hydroxypropyl]pyrazol-4-yl]amino]pyrimidin-4-yl]-3-methyl-pyrrolo[2,3-b]pyridin-5-yl]-4-morpholino-but-2-enamide] | 100 to 250 | 250 to 1000 | 100 to 250 | 250 to 1000
18 | Cc1cn(-c2nc(Nc3cnn(C)c3C)ncc2F)c2ncc(NC(=O)/C=C/CN(C)C)cc12 [Example 199, (E)-4-(dimethylamino)-N-[1-[2-[(1,5-dimethylpyrazol-4-yl)amino]-5-fluoro-pyrimidin-4-yl]-3-methyl-pyrrolo[2,3-b]pyridin-5-yl]but-2-enamide] | 0.1 to 100 | 100 to 250 | 0.1 to 100 | 0.1 to 100
19 | Cc1cnc(Nc2cn(C)nc2C)nc1-n1cc(C)c2cc(NC(=O)/C=C/CN(C)C)cnc21 [Example 200, (E)-4-(dimethylamino)-N-[1-[2-[(1,3-dimethylpyrazol-4-yl)amino]-5-methyl-pyrimidin-4-yl]-3-methyl-pyrrolo[2,3-b]pyridin-5-yl]but-2-enamide] | 0.1 to 100 | 0.1 to 100 | 0.1 to 100 | 0.1 to 100
